Source: US12070463B2, “Compositions and methods for the treatment of seizure caused by brain tumor” (Board Of Supervisors Of Louisiana State University And …, priority 2015, dated 2024)
Entries after “also recorded” stand apart in the source; their conditions may differ.

How the values were obtained:
[1] = system: MIP-2; test: Hippocampal MIP-2 after neuroinflammation (LPS / post status epilepticus), bead-based immunodetection; assay type: in vivo, mice; details: 60 mg/kg/daily for 5 days i.p.
Procedure: MIP-2 was measured using bead-based immunodetection. Values are means±SD: *P<0.05 (two-way repeated-measures ANOVA).
MIP-2 was measured using bead-based immunodetection respectively. Diamonds: interval of confidence; diamond internal horizontal line; group mean; bar lines; standard deviation. Data represent average and bars±S.E.M; n=3 of each group. ANOVA one way, *=p<0.05.
Pro-inflammatory molecular analysis: LC-MS/MS-based mediator lipidomic analysis will be evaluated as described previously (Musto et al., 2011, Musto and Samii, 2011), chemokine analysis was performed using commercial enzyme-linked immune-absorbent assay (Rodent MAPs Myira RBM, USA), and matrix metalloproteinase (MMP) activity were investigated by gelatin zymography assay (Ramaswamy et al., 2014).

[2] = system: U87MG cells; test: Hippocampal U87MG GBM xenograft, tumor growth by in vivo bioluminescent imaging; set-up: species or system BALB/c (nu/nu) mice
Procedure: FIGS. 3A-3C illustrate that a PAF-r antagonist reduces GBM tumor size. U87MG cells were implanted in the right dorsal CA3 hippocampal region of BALB/c (nu/nu) mice. Intracranial tumor growth was quantified using Jo vivo bioluminescent imaging on days 10 and 25. Saline (vehicle) or LAU-0901 (60 mg/kg/day; i.p., n=6 in each group) was administered daily from day 10, during 5 days.
Experimental Design and Methods: PAF-r deficient and wild type mice and athymic nude mice, 6 to 8 weeks of age (Harlan Laboratories) mice were used. The xerograph GBM mouse model is representative of this tumor, which has a narrow survival window. These cells form a massive and homogenous mass from tumor-initiating cells, are localized, and invade neuronal tissue. This model is a predictor of therapeutic responses in human glioblastoma patients. U87MG cells (FIGS. 2A-3C) with a luciferase reporter gene were injected (5×10^5 cells in […] serum-free DMEM) into the right dorsal CA3 hippocampal region (coordinates: 2.5 mm lateral, 1.7 mm posterior to the bregma, and 1.5 depth) of mice (6-8 wks of age) (Marrero et al., 2014).
In vivo imaging analysis: Intracranial tumor growth was quantified by bioluminescent imaging using an in vivo imaging system and procedures as described by Marrero et al., 2014, incorporated herein by reference in its entirety.

[3] = system: microglia; details: in vivo; cited from earlier work
[4] = system: Lyn kinase; test: Phospho-Lyn in hippocampal synapsis after SE, immunohistology; assay type: in vivo, mice; details: hippocampus
[5] = Seizure susceptibility and survival after status epilepticus (SE); assay type: in vivo, BALB/c (nu/nu) mice; details: 60 mg/kg i.p. daily for 5 days, 24 h after SE
Procedure: BABL/c (nu/nu) mice received compound LAU-0901 (60 mg/kg; i.p.) or saline daily for 5 days 24 h after SE.
GBM cells were implanted into PAF-r deficient or wild type mice. Lyn kinase inhibitor (Dasatinib; 0.01 mL/g) (Luo et al., 2000) or vehicle (propylene glycol/water) was administered intraperitoneally at 14 d after GBM implantation and continues for 14 d. Alternatively, BALB/c, (nu/nu) mice received LAU-0901 (60 mg/kg; i.p.) or saline daily for 5 days (n=4-5 per group) 24 h after SE. Weight, locomotion, survival rate, behavior, in vivo tumor growth, and GBM cells were analyzed.

[6] = system: dysmorphic filopodia-like spines; test: Dysmorphic filopodia-like dendritic spines in epileptogenesis, Golgi staining; assay type: in vivo, mice; details: 7 days after SE
Procedure: Cyto-architecture hippocampal neurons, dendrites and dendritic spines was evaluated using rapid Golgi staining and the DIOLISTIC labeling approach, as shown in FIG. 12A. Then dendrites and dendritic spines from pyramidal cells were reconstructed, analyzed, and visualized in a 30 shape of neurons from the ipsi and contralateral hippocampal region using light and confocal microscopy, digitally-traced, mediated computational analysis.

[7] = Pentylenetetrazol (PTZ) test, locomotor seizures by modified Racine's score; assay type: in vivo, mice; details: single dose 60 mg/kg i.p. 2 h before PTZ 40 mg/kg i.p.; vs vehicle
Procedure: A single dose (i.p.) of a LAU compound 60 mg/kg; ip.) or vehicle (0.1 mL of sterile 0.9% sodium chloride) was administered 2 h before a single dose of pentylenetetrazol (PTZ) (40 mg/kg; i.p.). Data represent average and bars±S.E.M. t-test between vehicle and for each LAU compound: LAU0901 p<0.031; others: p<0.0001 at 60 mins. Maximum seizure levels and the percentage reduction from vehicle after PTZ injection are shown. Locomotor seizures were video recorded and quantified according to a modified Racine's score (Stage: 0 normal locomotor activity. Stage 1, behavioral arrest, Stage 2: head nodding; stage 3, facial movements and contralateral forelimb dorms).
Pentylenetetrazol test: The systemic administration of pentylenetetrazol (PTZ) in rodents, an accepted model to test the potential anti-convulsive effect (Loscher, 2011) was used to evaluate seizure susceptibility in mice with GBM cell implantation. It has been seen that systemic administration of PTZ at 35 mg/kg is useful as a sub-convulsive dose to evaluate seizures after brain damage. Animals were placed in individual Plexiglas cages (28×28×37.5 cm) and then a single dose of PTZ (Sigma, St. Louis, MO) at 35 mg/kg were administered intraperitoneally (i.p.) to each animal. Locomotor seizures were quantified according to a modified Racine's Score classified as previously described (Musto et al., 2009, 2011).

[8] = system: MIP-2; test: MIP-2 in mice with GBM; assay type: in vivo; details: compared with vehicle

Molecule | hippocampal levels of MIP-2 ([1]; LPS one week after status epilepticus, vs saline (FIG. 4)) | hippocampal levels of MIP-2 ([1]; LPS or one week after status epilepticus (PSE), vs vehicle (FIG. 20), 60 mg/kg) | tumor size ([2]; 60 mg/kg/day i.p. for 5 days from day 10, representative images, 10 week-survival period, vs saline) | tumor size diminished compared to saline-treated group ([2]; day 25, 60 mg/kg/day i.p. for 5 days from day 10) | body weight ([2]; weeks 8 and 10, compared to saline group) | microglia activation [3] | puncta phospho-Lyn and co-localization with pre- and post-synaptic markers [4] | seizure severity [5] | average spine length for dysmorphic filopodia-like spines [6] | neuronal hyper-excitability (locomotor seizures after PTZ) [7] | increases of MIP-2 [8]
2,4,6-trimethyl-1,4-dihydro-pyridine-3,5-dicarboxylic acid 5-[2-(3,4-dichlorophenyl) sulfanethyl ester 3-[1,3-di-(4-morpholinyl)-2-propyl-1-ester [LAU-0901] | reduced | limited; also recorded: reduces | dramatically reduced | 80% | increased | reduces microglia activation | low puncta phospho-Lyn | reduced seizure severity | increased in the vehicle-treated compared to the LAU-0901-treated group | counteract neuronal hyper-excitability | 
CC(C)Cc1ccc([C@@H](C)C(=O)NS(C)(=O)=O)cc1 [repertaxin] |  |  |  |  |  |  |  |  |  |  | higher in those mice treated with vehicle
